Measurements as given in US20230097753A1, “ALPHA-HYDROXYLATED FATTY-ACID METABOLITES, MEDICAL USES AND USE AS BIOMARKERS” (UNIVERSITAT DE LES ILLES BALEARS, priority 2020, published 2023).
Where “and” joins values, the source holds several entries; their conditions need not be identical. Equal entries are not always repeated. Values belong to the molecule of their own block, whether it stands above or below them.

Columns and labels:
[1] = test system: BIP, CHOP, cJun phosphorylation, phosphorylation of Akt, cyclin D3; assay: Western Blot of proliferation and death markers in glioma and non-tumor cell lines; type: cell-based; conditions: 200 μM C17:1n-9, 200 μM OA or 400 μM 2OHOA, 72 hours
Protocol: FIG. 16. Analysis of the effect of different fatty acids on markers of proliferation and death in different cell lines.
(§1) To study whether the metabolite C17:1n-9 can participate in the action of 2OHOA, the effect of pre-incubation with oxythiamine on cell survival and 2OHOA-regulated proteins was studied. To do this, the cell survival of different glioma and non-tumor cell lines treated with 2OHOA (400 μM, 72 hours) and pre-incubated or not with 2 mM […] (90 minutes) was analyzed by counting the cells with the vital exclusion stain with trypan blue. In addition, Western-blot 2OHOA-modulated proteins were studied. In glioma cells, a significant decrease in cell survival was observed after incubation with 2 mM oxythiamine for 72 hours.

SF-295 = assay: Cell survival by trypan blue vital exclusion staining, 2OHOA and oxythiamine; type: cell-based, human
Protocol: FIG. 18. Effect of metabolite C17:1n-9 on the action of 2OHOA. […] Cell viability was determined by vital exclusion staining with trypan blue.
as §1

SF-295 glioma cells [2] = conditions: human, 24 h, 400 μM
From the text: (§4) Analysis of the composition of fatty acids in different glioma and non-tumor cell lines after treatment with 2OHOA sodium salt. […] The black bar corresponds to the concentration of each fatty acid in the control, and the white bar corresponds to the concentration of the fatty acid after treatment with 2OHOA sodium salt. C17:0 margaric acid is included as an internal control. The columns show the mean±SEM of three independent experiments expressed in nmoles and normalized per mg of protein. Statistical significance is determined with a Student's t-test (**p<0.01, ***p<0.001 with respect to the control).

[3] = test system: MRC-5 (human fibroblasts); conditions: 24 h, 400 μM
From the text: as §4

[4] = Fatty acids in plasma of patients with advanced glioma treated with 2OHOA sodium salt; type: in vivo, human; conditions: for Time of peak plasma levels: first day
Protocol: FIG. 24. Analysis of composition in fatty acids in human patients with advanced glioma. (A) Representative chromatogram of the fatty acid composition of a patient with glioma responsive to treatment with 2OHOA sodium salt (12 g/day, 21 days) and determined in plasma samples obtained at different treatment times (0, 4 and 360 hours, 15 days) by gas chromatography. […] The C17:0 margaric acid in the chromatograms was quantified as internal control.
Plasma samples were obtained at different times (0, 2, 4, 6, 8 hours and after 8, 15, 21 and 28 days after treatment with 2OHOA) and were subsequently given for fatty acid analysis using the gas chromatography technique.

[5] = Fatty acids in rat plasma after oral 2OHOA sodium salt (gas chromatography); type: in vivo; conditions: for Maximum plasma concentration: 2 hours after oral 2OHOA sodium salt 2 g/Kg; for Maximum plasma concentration / Time of maximum plasma concentration: acute treatment
Protocol: FIG. 20. […] Statistical significance is determined with a Wilcoxon test (*p<0.05 and **p<0.01 with respect to baseline levels at 0 hours; $p<0.05 and $$p<0.01 with respect to 2OHOA fatty acid levels).
FIG. 21. […] Statistical significance is determined by a Wilcoxon test (*p<0.05 and **p<0.01 with respect to baseline levels at 0 hours; $p<0.05 and $$p<0.01 with respect to 2OHOA fatty acid levels).
For the present study, 2 g of 2OHOA/Kg sodium salt was administered to rats 12-14 weeks of age orally for 15 days. Subsequently, plasma samples were extracted at different times (0, 1, 2, 3, 4, 6, 8 and 24 h) from day 1 (acute treatment) and 15 (chronic treatment). Finally, the fatty acid profile in plasma samples was analyzed by gas chromatography.

mouse astrocytes [6] = conditions: 24 h, 400 μM
From the text: as §4

mouse astrocytes [7] = assay: Cell viability by violet crystal staining, 72 hours; type: cell-based; conditions: Astrocyte, Astrocytes non-tumor cells
Protocol: (§2) FIG. 15. Effect of 2OHOA sodium salt, C17:1n-9 sodium salt, and OA on cell viability and proliferation of non-tumor cells. Non-tumor cell viability curves (A1-A3) MRC-5 (human fibroblasts); and (B1-B3) mouse astrocytes treated with increasing doses of 2OHOA sodium salt (0-1000 μM) (A1 and B1); OA (0-300 μM) (A2 and B2); and C17:1n-9 sodium salt (0-300 μM) (A3 and B3) for 72 hours. Viability was determined by violet crystal staining.
(§3) In order to evaluate the antiproliferative effect of C17:1n-9, its IC50, which corresponds to the amount of a compound needed to reduce cell viability in vitro by 50%, as well as its effect on the regulation of proteins involved in the mechanism of action of 2OHOA, were determined. […] Upon completion of treatment, IC50 was determined by violet crystal staining technique. […] The IC50 of 2OHOA was 1000 μM for non-tumor cells, MRC-5 and astrocytes.

[8] = test system: MRC-5 (human fibroblasts); assay: as above; type: cell-based
Protocol: as §2, §3

[9] = defined in preclinical studies; cited from earlier work
SF-295 glioma cells [10] = assay: Cell viability by violet crystal staining, 72 hours; type: cell-based, human; conditions: for IC50: SF-295, 72 hours
Protocol: FIG. 14. Effect of 2OHOA sodium salt, OA and C17:1n-9 sodium salt on cell viability and proliferation of glioma cells. […] Viability was determined by violet crystal staining.
as §3

mouse astrocytes [11] = assay: Fatty acid composition by gas chromatography after treatment with 2OHOA; conditions: 2OHOA 400 μM for 24 hours
From the text: as §4

[12] = test system: MRC-5 (human fibroblasts); assay: as above; conditions: MRC-5, 2OHOA 400 μM for 24 hours
From the text: as §4

[13] = patients, 12 g/day 2OHOA sodium salt

Structure (SMILES): CCCCCCCC/C=C\CCCCCCC(O)C(=O)O (stereo not shown) [2OHOA, 2-hydroxyoleic acid]
Effect on signaling proteins (Western Blot) [1]: increased levels of BIP, CHOP and cJun phosphorylation and decreased phosphorylation of Akt and cyclin D3 levels | Cell death (SF-295; SF-295, 2OHOA 400 μM, 72 hours): 23.97±1.25% | Cell death (SF-295; SF-295, 2OHOA combined with 2 mM oxythiamine): 10.85±0.58% | Recovery in cell viability (SF-295; SF-295, 2OHOA combined with 2 mM oxythiamine vs 2OHOA alone): 17.25% | Level of the fatty acid in cells after treatment with 2OHOA (SF-295 glioma cells [2]): 9.21 nmol/mg | 2OHOA accumulated more than its metabolite C17:1n-9 [3]: 46% | concentration at 4 h ([4]; human, plasma, oral, patients (responders and non-responders), 12 g/day 2OHOA sodium salt, read-out: Plasma level 4 hours after the first intake): 53.1 ± 6.52 µM | concentration at 8 h ([4]; human, plasma, oral, patients, 12 g/day 2OHOA sodium salt, read-out: Plasma level 8 hours after treatment): 25.4 ± 3.99 µM | concentration at 360 h ([4]; human, plasma, oral, patients, 12 g/day 2OHOA sodium salt, read-out: Plasma level after 15 days (360 hours) of treatment): 185 ± 25.6 µM | concentration at 192 h ([4]; human, plasma, oral, patients, 12 g/day 2OHOA sodium salt, read-out: Plasma level at 8 days of treatment (192 hours)): 25.4 ± 3.99 µM | Plasma level after 15 days (360 hours) of treatment [4, 13]: 141.10±16.35 nmol/ml plasma | Plasma level at 8 days of treatment (192 hours) [4, 13]: 25.39±3.99 nmol/ml plasma | Plasma level at 21 days of treatment [4, 13]: 184.70±25.60 nmol/ml plasma | Time of peak plasma levels [4, 13]: 4 h | Maximum plasma concentration [5]: 26.23±5.79 nmol/ml plasma | Time of maximum plasma concentration ([5]; oral 2OHOA sodium salt 2 g/Kg): 2 h | concentration at 8 h ([5]; plasma, oral 2OHOA sodium salt 2 g/Kg, read-out: Plasma level after 8 hours): 7.12 ± 1.56 µM | concentration at 0 h ([5]; plasma, oral 2OHOA sodium salt 2 g/Kg, read-out: Plasma level at 0 hours (initial levels, prior to administration)): 1.22 ± 0.33 µM | concentration at 24 h ([5]; plasma, oral 2OHOA sodium salt 2 g/Kg, read-out: Plasma level at 24 hours (trough values)): 2.8 ± 0.69 µM | 2OHOA accumulated more than its metabolite C17:1n-9 (mouse astrocytes [6]): 38.27% | IC50 (mouse astrocytes [7]): > 1000 µM | IC50 ([8]; Homo sapiens, MRC5, MRC-5 non-tumor cells): > 1000 µM | Maximum tolerated dose [9]: 2000 mg/kg | IC50 (SF-295 glioma cells [10]; Homo sapiens): 399 ± 11.5 µM | IC50 of 2OHOA relative to that of metabolite C17:1n-9 (SF-295 glioma cells [10]; SF-295): 1.60 times | IC50 of 2OHOA relative to that of non-hydroxy analogue OA (SF-295 glioma cells [10]; SF-295): 1.56 times

Level of the fatty acid in cells after treatment with 2OHOA (mouse astrocytes [11]): 7.58 ± 0.70 nmol/mg and 7.58 nmol/mg | Plasma level 4 hours after the first intake ([4]; patients (responders and non-responders), 12 g/day 2OHOA sodium salt): 122.80±10.61 nmol/ml of plasma | C17:1n-9 plasma levels relative to 2OHOA ([4]; patients at 21 days of treatment): 1.90 times | C17:1n-9 plasma levels relative to 2OHOA ([4]; patients treated for 8 days): 3.66 times | C17:1n-9 plasma levels relative to 2OHOA ([4]; patients treated for 15 days): 2.20 times | Plasma level 8 hours after treatment [4, 13]: 92.89±9.39 nmol/ml of plasma | Plasma level at 21 days of treatment [4, 13]: 366.9±72.47 nmol/ml plasma | Time of peak plasma levels [4, 13]: 4 h | Maximum plasma concentration [5]: 60.47±6.53 nmol/ml plasma | Plasma level after 8 hours ([5]; oral 2OHOA sodium salt 2 g/Kg): 23.31±5.18 nmol/mL plasma | Plasma level at 0 hours (initial levels, prior to administration) ([5]; oral 2OHOA sodium salt 2 g/Kg): 8.45±2.52 nmol/ml plasma | Time of maximum plasma concentration ([5]; oral 2OHOA sodium salt 2 g/Kg): 2 h | Level of the fatty acid in cells after treatment with 2OHOA [12]: 14.00 nmol/mg | IC50 (SF-295 glioma cells [10]): 249 ± 6.02 µM
Structure (SMILES): CCCCCCCC/C=C\CCCCCCC(=O)O [C17:1n-9, 8Z-heptadecenoic acid]
Effect on signaling proteins (Western Blot) [1]: did not produce changes in any of these proteins | Plasma level at 24 hours (trough values) ([5]; oral 2OHOA sodium salt 2 g/Kg): 14.03±2.20 nmol/ml plasma and 14.03±2.21 nmol/ml plasma | IC50 ([8]; MRC-5 non-tumor cells): 248 ± 7.28 µM
